Data published in patent publication US7507823B2, “Process of making aripiprazole particles” (Bristol-Myers Squibb Company, priority 2004, dated 2009).
≈ marks a conversion by molar mass, not a printed value.

Test: Solubility of aripiprazole in n-propanol
Type: physicochemical
Conditions: organic solvent or mixture; solvent n-propanol (n-PrOH)
Description: The solubility of aripiprazole in n-PrOH is low, only about 7 mg/ml. Therefore, a highly saturated solution could be produced with a very low solution concentration. At such low concentrations, the number of nucleation sites within the nozzle is low enough to prevent substantial blockages. When processing n-PrOH solutions at […], pressure fluctuations were reduced to a more satisfactory level of <35 bar. […] Water was again incorporated into the solution, in an attempt to produce the monohydrate. […] The sample was, however, anhydrous.

SMILES: O=C1CCc2ccc(OCCCCN3CCN(c4cccc(Cl)c4Cl)CC3)cc2N1 [aripiprazole, 7-(4-[4-(2,3-dichloropheny)-1-piperazinyl]-butoxy)-3,4-dihydro carbostyril]
- solubility: ~7000 µg/mL (≈ 15.6 mM)
